Laboratory results as given in ChEMBL document CHEMBL1158598, “5-ureidobenzofuranone indoles as potent and efficacious inhibitors of PI3 kinase-alpha and mTOR for the treatment of breast cancer” (Bioorg Med Chem Lett, 2010).
Converted amounts (≈) assume the structure as drawn. The source made the active and inactive calls. The rule behind the calls is not given here.

Assays:
MDA-MB-361 [1] = assay: Cytotoxicity against human MDA-MB-361 cells; type: functional, cell-based
[2] = Cytotoxicity against human PC3MM2 cells; type: functional, cell-based
[3] = target: Serine/threonine-protein kinase mTOR (Homo sapiens, UniProt P42345); assay: Inhibition of mTOR
[4] = target: Phosphatidylinositol 4,5-bisphosphate 3-kinase catalytic subunit alpha isoform (Homo sapiens, UniProt P42336); assay: Inhibition of PI3Kalpha
Mus musculus [5] = assay: Inhibition of AKT-S473 phosphorylation in nude mouse at 25 mg/kg, iv after 8 hrs; type: functional, organism-based; set-up: dose 25 mg/kg
[6] = Permeability from basolateral to apical side of the human Caco-2 membrane; type: ADME, cell-based; conditions: read-out: permeability
[7] = Half life in human microsome; type: ADME; conditions: microsomes
Mus musculus [8] = assay: Inhibition of AKT-PS6 phosphorylation in nude mouse at 25 mg/kg, iv after 8 hrs; type: functional, organism-based; set-up: dose 25 mg/kg
[9] = target: T1, Phosphatidylinositol 4,5-bisphosphate 3-kinase catalytic subunit delta isoform (Homo sapiens, UniProt O00329); assay: Inhibition of PI3delta
T1 sequence (O00329 whole entry): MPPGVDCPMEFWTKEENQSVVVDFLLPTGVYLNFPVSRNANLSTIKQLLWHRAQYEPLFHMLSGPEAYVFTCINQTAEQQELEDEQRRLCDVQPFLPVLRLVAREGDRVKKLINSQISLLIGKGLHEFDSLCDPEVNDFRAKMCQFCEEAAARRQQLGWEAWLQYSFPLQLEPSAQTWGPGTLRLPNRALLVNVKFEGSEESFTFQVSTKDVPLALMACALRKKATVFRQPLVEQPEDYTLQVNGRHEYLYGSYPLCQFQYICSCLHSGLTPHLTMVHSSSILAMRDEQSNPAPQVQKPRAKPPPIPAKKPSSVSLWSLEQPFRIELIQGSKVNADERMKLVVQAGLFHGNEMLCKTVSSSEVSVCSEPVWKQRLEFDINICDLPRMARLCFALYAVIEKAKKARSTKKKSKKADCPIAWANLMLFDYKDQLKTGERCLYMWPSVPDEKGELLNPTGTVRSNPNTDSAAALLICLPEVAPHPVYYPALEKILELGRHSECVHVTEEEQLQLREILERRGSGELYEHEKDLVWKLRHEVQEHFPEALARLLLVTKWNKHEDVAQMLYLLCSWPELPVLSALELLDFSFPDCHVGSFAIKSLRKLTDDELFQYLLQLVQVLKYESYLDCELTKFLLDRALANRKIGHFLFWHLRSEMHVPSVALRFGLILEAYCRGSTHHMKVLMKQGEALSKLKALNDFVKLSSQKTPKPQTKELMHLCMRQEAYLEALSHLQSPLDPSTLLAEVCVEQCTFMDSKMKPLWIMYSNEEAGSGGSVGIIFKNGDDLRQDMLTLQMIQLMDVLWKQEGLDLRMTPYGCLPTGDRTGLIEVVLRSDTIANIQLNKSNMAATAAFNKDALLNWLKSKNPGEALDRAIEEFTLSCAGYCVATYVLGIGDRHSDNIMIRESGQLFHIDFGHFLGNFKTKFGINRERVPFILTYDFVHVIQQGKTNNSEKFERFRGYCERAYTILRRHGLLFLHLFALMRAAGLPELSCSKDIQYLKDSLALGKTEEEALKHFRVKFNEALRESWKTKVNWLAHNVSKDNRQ

[10] = Half life in mouse microsome; type: ADME; conditions: microsomes
[11] = target: Phosphatidylinositol 4,5-bisphosphate 3-kinase catalytic subunit beta isoform (Homo sapiens, UniProt P42338); assay: Inhibition of PI3Kbeta
MDA-MB-361 [12] = assay: Antitumor activity against human MDA-MB-361 cells xenografted in mouse assessed as reduction in tumor size at 25 mg/kg, iv after 1 to 9 days; type: functional, organism-based; set-up: dose 25 mg/kg
Mus musculus [13] = assay: Inhibition of AKT-P70S6K phosphorylation in nude mouse at 25 mg/kg, iv after 8 hrs; type: functional, organism-based; set-up: dose 25 mg/kg
[14] = test system: Phosphatidylinositol 4,5-bisphosphate 3-kinase catalytic subunit alpha isoform (Homo sapiens), P42336 [E545K]; assay: Inhibition of PI3Kalpha E545K mutant
[15] = Permeability from apical to basolateral side of the human Caco-2 membrane; type: ADME, cell-based; conditions: read-out: permeability
[16] = target: Phosphatidylinositol 4,5-bisphosphate 3-kinase catalytic subunit gamma isoform (Homo sapiens, UniProt P48736); assay: Inhibition of PI3gamma
[17] = Solubility at pH 7.4; type: physicochemical; conditions: buffer
[18] = Half life in rat microsome; type: ADME; conditions: microsomes
[19] = test system: Phosphatidylinositol 4,5-bisphosphate 3-kinase catalytic subunit alpha isoform (Homo sapiens), P42336 [H1047R]; assay: Inhibition of PI3Kalpha H1047R mutant
Mus musculus [20] = assay: Inhibition of AKT-T308 phosphorylation in nude mouse at 25 mg/kg, iv after 8 hrs; type: functional, organism-based; set-up: dose 25 mg/kg

Chain of Phosphatidylinositol 4,5-bisphosphate 3-kinase catalytic subunit alpha isoform (P42336 whole entry, canonical isoform): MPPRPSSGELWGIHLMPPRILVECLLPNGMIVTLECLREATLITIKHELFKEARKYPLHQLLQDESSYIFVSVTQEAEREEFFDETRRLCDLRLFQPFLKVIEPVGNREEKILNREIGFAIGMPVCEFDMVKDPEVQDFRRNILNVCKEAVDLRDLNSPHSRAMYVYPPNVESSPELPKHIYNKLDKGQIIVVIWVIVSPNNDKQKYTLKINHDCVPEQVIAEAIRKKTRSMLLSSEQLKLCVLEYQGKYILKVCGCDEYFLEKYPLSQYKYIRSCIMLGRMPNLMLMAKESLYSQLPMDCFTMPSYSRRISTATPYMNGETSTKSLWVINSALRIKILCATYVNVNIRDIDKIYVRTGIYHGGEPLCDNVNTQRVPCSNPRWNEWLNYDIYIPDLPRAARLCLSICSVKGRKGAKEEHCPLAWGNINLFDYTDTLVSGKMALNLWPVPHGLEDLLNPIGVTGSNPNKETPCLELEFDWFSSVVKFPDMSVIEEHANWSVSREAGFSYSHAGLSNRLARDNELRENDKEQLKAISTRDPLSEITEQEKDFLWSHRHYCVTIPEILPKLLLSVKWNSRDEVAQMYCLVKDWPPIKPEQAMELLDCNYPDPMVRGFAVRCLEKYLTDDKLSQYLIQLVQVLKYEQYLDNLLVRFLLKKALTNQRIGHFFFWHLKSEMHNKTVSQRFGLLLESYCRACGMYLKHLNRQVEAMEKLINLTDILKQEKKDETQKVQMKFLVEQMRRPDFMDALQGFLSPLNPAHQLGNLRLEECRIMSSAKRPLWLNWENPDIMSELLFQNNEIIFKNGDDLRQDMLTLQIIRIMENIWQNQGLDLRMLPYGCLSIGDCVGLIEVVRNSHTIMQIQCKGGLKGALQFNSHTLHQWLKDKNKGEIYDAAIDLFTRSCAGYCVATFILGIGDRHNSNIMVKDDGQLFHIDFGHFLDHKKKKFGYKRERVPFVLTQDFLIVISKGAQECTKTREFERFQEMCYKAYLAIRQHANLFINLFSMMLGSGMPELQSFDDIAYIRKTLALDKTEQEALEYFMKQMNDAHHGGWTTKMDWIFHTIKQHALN
Chain of Phosphatidylinositol 4,5-bisphosphate 3-kinase catalytic subunit beta isoform (P42338 whole entry, canonical isoform): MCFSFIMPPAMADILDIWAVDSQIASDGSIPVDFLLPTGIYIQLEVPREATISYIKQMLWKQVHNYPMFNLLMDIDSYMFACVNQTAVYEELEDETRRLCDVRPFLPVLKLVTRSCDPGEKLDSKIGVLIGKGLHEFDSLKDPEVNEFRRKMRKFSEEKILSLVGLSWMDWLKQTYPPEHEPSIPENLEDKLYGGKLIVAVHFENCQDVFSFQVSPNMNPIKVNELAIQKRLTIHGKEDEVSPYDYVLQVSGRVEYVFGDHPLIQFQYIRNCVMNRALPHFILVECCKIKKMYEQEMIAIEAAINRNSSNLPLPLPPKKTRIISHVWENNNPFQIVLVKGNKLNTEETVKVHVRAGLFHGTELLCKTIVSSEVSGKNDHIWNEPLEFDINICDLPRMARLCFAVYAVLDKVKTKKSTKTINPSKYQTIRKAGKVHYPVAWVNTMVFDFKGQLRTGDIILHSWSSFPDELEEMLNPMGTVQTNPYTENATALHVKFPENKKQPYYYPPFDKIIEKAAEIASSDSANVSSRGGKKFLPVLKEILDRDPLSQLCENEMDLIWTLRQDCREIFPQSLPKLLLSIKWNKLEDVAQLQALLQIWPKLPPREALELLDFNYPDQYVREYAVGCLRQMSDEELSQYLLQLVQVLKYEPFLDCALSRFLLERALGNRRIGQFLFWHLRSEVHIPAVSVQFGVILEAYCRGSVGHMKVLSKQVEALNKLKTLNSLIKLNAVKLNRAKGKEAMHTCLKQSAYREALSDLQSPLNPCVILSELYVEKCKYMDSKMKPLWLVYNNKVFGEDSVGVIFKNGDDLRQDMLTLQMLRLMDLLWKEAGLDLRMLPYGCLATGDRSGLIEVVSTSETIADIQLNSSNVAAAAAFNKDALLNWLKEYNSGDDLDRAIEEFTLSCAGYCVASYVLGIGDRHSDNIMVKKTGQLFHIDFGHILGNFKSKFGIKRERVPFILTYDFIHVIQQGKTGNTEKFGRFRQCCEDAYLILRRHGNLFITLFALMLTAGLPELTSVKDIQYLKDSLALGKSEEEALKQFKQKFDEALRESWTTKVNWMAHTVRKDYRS
Chain of Phosphatidylinositol 4,5-bisphosphate 3-kinase catalytic subunit alpha isoform (Homo sapiens), P42336 [E545K] (P42336 whole entry E545K, canonical isoform): as the sequence (P42336 whole entry, canonical isoform) above, with E545K counted along it
Chain of Phosphatidylinositol 4,5-bisphosphate 3-kinase catalytic subunit alpha isoform (Homo sapiens), P42336 [H1047R] (P42336 whole entry H1047R, canonical isoform): as the sequence (P42336 whole entry, canonical isoform) above, with H1047R counted along it
Chain of Phosphatidylinositol 4,5-bisphosphate 3-kinase catalytic subunit gamma isoform (P48736 whole entry, canonical isoform): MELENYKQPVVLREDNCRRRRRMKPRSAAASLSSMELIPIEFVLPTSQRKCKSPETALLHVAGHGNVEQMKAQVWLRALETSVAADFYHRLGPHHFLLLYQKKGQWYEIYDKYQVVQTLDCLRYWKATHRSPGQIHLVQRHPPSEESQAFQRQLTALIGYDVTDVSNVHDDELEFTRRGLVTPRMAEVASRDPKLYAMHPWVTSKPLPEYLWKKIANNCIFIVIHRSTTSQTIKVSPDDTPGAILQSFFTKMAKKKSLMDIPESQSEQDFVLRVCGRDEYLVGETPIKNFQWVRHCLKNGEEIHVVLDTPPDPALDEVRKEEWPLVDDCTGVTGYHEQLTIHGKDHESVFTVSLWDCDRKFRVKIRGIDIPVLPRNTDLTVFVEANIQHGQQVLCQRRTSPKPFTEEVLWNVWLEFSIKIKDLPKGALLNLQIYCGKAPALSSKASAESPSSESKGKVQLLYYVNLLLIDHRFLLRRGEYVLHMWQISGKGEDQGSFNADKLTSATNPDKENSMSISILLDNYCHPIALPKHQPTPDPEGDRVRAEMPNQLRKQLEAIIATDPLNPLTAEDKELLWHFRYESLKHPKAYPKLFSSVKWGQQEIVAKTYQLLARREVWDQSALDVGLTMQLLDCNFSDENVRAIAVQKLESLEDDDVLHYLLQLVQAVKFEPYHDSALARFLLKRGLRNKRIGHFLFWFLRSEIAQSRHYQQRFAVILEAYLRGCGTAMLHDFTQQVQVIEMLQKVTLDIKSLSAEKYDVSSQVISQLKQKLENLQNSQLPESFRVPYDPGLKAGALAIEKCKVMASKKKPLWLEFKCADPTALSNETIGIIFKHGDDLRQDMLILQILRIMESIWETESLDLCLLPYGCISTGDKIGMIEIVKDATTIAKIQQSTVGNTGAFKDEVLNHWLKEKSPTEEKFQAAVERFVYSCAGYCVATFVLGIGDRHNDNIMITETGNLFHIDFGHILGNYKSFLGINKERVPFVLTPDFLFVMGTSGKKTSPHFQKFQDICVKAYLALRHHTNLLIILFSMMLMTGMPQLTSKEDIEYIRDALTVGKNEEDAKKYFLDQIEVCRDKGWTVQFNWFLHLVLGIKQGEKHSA

Compound | IC50 [3] | IC50 [4] | IC50 (MDA-MB-361 [1]) | IC50 [2] | other results
COc1cc(F)c2[nH]c(-c3c(C)nn(C)c3C)c(/C=C3/Oc4ccc(NC(=O)Nc5ccc(C(=O)N6CCOCC6)cc5)cc4C3=O)c2c1 | 2.5 nM | 0.5 nM | 6 nM | 57 nM | –
COc1ccc2[nH]cc(/C=C3/Oc4ccc(NC(=O)Nc5ccc(C(=O)N6CCN(C)CC6)cc5)cc4C3=O)c2c1 | > 4000 nM | 0.9 nM | > 1000 nM | > 1000 nM | –
COc1cc(F)c2[nH]c(-c3c(C)nn(C)c3C)c(/C=C3/Oc4ccc(NC(=O)Nc5ccc(C(=O)N(C)CCN(C)C)cc5)cc4C3=O)c2c1 | 0.3 nM | 0.2 nM | < 3 nM | 10 nM | inhibition (Mus musculus [5]): Active; Papp B→A [6]: 0.3 ×10⁻⁶ cm/s; half-life [7]: > 30 min; inhibition (Mus musculus [8]): Active; IC50 [9]: 0.6 nM; half-life [10]: > 30 min; IC50 [11]: 0.7 nM; Activity (MDA-MB-361 [12]): Active; inhibition (Mus musculus [13]): Active; IC50 [14]: 0.3 nM; Papp A→B [15]: 0.3 ×10⁻⁶ cm/s; IC50 [16]: 2.4 nM; solubility [17]: 1 µg/mL (≈ 1.47 µM); half-life [18]: > 30 min; INH [19]: 0.5 nM; inhibition (Mus musculus [20]): Active
COc1ccc2[nH]c(-c3c(C)nn(C)c3C)c(/C=C3/Oc4ccc(NC(=O)Nc5ccc(C(=O)N(C)CCN(C)C)cc5)cc4C3=O)c2c1 | 1.1 nM | 0.3 nM | < 3 nM | 23 nM | –
COc1ccc2[nH]c(-c3c(C)nn(C)c3C)c(/C=C3/Oc4ccc(NC(=O)Nc5cccnc5)cc4C3=O)c2c1 | 5.2 nM | 0.5 nM | 76 nM | > 10000 nM | –
COc1cc(F)c2[nH]c(-c3c(C)nn(C)c3C)c(/C=C3/Oc4ccc(NC(=O)Nc5cccnc5)cc4C3=O)c2c1 | 1.5 nM | 1 nM | 39 nM | > 1000 nM | –

More lines, main results first:

IC50 [3] | IC50 [4] | Compound | IC50 (MDA-MB-361 [1]) | IC50 [2] | other results
2.4 nM | 0.4 nM | CNC(=O)Nc1ccc2c(c1)C(=O)/C(=C\c1c(-c3c(C)nn(C)c3C)[nH]c3c(F)cc(OC)cc13)O2 | 20 nM | 62 nM | –
1.3 nM | 0.4 nM | CNC(=O)Nc1ccc2c(c1)C(=O)/C(=C\c1c(-c3c(C)nn(C)c3C)[nH]c3ccc(OC)cc13)O2 | 36 nM | 130 nM | –
4.2 nM | 0.2 nM | COc1ccc2[nH]c(-c3c(C)nn(C)c3C)c(/C=C3/Oc4ccc(NC(=O)Nc5ccc(C(=O)N6CCOCC6)cc5)cc4C3=O)c2c1 | 6 nM | 94 nM | –
3.8 nM | 0.2 nM | COc1ccc2[nH]c(-c3c(C)nn(C)c3C)c(/C=C3/Oc4ccc(NC(=O)Nc5ccc(C(=O)N6CCN(C)CC6)cc5)cc4C3=O)c2c1 | 8 nM | 131 nM | –
